The target in experiment [1] is T1, RARα (Homo sapiens (Human), UniProt P10276). Conditions: transactivation, relative to atRA = 1; cited from earlier work.
In experiment [2] the target is T2, RARγ (Homo sapiens (Human), UniProt P13631). The conditions noted are these: transactivation, relative to atRA = 1; cited from earlier work.
For experiment [3], the target named is T1, RARα. The experiment can be described thus: Subtype-specific transactivation from Yoshimura et al., 2000, RARα. The conditions noted are these: ratio of relative EC30 (transactivation), Table 6. It is filed as cell-based.
The target in experiment [4] is T2, RARγ. The experiment can be described thus: Subtype-specific transactivation from Yoshimura et al., 2000, RARγ. It is filed as cell-based. Conditions: ratio of relative EC30 (transactivation), Table 6.
The target of experiment [5] is RARβ (Homo sapiens (Human), UniProt P10826). Conditions: transactivation, relative to atRA = 1; cited from earlier work.
Experiment [6] deals with RARγ (Mus musculus (Mouse), UniProt P18911). The experiment can be described thus: Transactivation assay for RARγ (gal4-RAR fusion, pFR-luc reporter, COS-7 cells), Table 2. It is filed as cell-based. Conditions: for RARγ/RARβ ratio: fold-selectivity for RARβ over RARγ, >1 = selective for RARβ. The procedure: (§1) Transcriptional transactivation assays were performed with gal4 fusion receptor constructs, created using each of the RAR ligand binding domains of either mouse or human, co-transfected with the pFR-luc (Stratagene) reporter construct in COS-7 cells.
(§2) Briefly, on day 1, 96 well plates were seeded with 8000 cells per well then left to recover overnight. On day 2, the cells were co-transfected with 100 ng of reporter plasmid and 10 ng of the appropriate receptor plasmid per well using lipofectamine (Invitrogen). On day 3, the lipofectamine containing media was replaced by a DMEM without phenol red, followed by the addition of test compound dissolved in 1 μL of DMSO to each well's 100 μL total volume. Finally, on day 4, the cells were lysed and their luciferase substrate was provided by the BrightGlo™ reagent (Promega), the plates were then read on the MicroBeta TriLux™ (Perkin Elmer).
(§3) Data for test compounds are quoted as EC50 values. Where replicate data has been generated, the data are quoted as the mean EC50 from the separate experiments.
(§4) EC50's values are reported as mean values of three or more determinations.

The target of experiment [7] is RARα (Mus musculus (Mouse), UniProt P11416). The experiment can be described thus: Transactivation assay for RARα (gal4-RAR fusion, pFR-luc reporter, COS-7 cells), Table 2. The class given is cell-based. The conditions noted are these: for RARα/RARβ ratio: fold-selectivity for RARβ over RARα, >1 = selective for RARβ. As for the experimental part: as §1, §2, §3, §4

The target in experiment [8] is RARβ (Mus musculus (Mouse), UniProt P22605). Description: Transactivation assay for RARβ (gal4-RAR fusion, pFR-luc reporter, COS-7 cells), Table 2. The class given is cell-based. The conditions noted are these: COS-7 reporter, mean of three or more determinations, species not stated (method: mouse or human). The procedure: as §1, §2, §3, §4
[9] abbreviates: Table 2, COS-7 reporter, mean of three or more determinations, inactive = no agonist action at highest concentration tested.

SMILES strings stand for the structures.

RARβ (Mus musculus (Mouse), UniProt P22605), sequence (P22605 210-444): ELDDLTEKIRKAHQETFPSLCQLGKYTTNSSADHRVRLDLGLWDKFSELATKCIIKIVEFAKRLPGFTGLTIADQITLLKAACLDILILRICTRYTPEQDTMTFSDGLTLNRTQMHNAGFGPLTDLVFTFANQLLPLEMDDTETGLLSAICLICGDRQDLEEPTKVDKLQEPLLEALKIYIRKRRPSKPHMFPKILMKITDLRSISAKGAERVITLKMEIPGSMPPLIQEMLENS
T1 sequence (P10276 whole entry, species assumed): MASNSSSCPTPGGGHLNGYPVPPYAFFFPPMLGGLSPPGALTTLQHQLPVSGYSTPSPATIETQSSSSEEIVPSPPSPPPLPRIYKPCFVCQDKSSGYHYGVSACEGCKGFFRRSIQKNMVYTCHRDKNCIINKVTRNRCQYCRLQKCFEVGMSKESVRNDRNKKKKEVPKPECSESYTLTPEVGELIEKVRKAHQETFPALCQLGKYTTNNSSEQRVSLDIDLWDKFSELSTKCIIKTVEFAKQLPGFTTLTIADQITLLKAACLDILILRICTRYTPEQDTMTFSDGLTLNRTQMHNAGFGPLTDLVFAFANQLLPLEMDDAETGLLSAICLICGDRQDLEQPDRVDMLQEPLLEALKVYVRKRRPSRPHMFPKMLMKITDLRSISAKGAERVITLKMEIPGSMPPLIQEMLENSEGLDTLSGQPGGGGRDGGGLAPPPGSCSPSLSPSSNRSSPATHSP
RARγ (Mus musculus (Mouse), UniProt P18911), sequence (P18911 185-419): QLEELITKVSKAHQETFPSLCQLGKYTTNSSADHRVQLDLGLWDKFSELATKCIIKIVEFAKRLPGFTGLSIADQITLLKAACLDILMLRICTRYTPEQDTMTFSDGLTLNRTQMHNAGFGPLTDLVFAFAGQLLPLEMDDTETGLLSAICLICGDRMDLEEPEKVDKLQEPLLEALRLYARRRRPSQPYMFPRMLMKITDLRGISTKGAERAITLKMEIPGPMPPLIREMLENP
RARα (Mus musculus (Mouse), UniProt P11416), sequence (P11416 183-417): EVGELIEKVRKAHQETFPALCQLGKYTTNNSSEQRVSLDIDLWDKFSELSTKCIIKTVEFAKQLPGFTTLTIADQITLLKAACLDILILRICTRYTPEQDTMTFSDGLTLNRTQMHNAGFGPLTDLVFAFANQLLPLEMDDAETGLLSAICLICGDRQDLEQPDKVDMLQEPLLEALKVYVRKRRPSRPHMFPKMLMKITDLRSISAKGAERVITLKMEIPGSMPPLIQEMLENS
T2 sequence (P13631 whole entry, species assumed): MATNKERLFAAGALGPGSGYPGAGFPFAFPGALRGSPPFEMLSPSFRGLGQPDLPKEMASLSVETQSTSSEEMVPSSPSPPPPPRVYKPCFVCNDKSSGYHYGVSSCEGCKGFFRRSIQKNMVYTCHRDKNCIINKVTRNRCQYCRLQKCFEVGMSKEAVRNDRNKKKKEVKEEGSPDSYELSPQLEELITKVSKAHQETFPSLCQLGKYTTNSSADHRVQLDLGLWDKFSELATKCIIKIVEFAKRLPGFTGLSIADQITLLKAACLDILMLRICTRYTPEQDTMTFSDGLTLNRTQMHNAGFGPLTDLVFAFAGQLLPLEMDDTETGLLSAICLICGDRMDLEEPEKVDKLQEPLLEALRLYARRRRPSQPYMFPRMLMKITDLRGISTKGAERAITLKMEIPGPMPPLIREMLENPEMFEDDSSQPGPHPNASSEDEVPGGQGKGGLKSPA
RARβ (Homo sapiens (Human), UniProt P10826), sequence (P10826 whole entry, species assumed, the tested form may be a part): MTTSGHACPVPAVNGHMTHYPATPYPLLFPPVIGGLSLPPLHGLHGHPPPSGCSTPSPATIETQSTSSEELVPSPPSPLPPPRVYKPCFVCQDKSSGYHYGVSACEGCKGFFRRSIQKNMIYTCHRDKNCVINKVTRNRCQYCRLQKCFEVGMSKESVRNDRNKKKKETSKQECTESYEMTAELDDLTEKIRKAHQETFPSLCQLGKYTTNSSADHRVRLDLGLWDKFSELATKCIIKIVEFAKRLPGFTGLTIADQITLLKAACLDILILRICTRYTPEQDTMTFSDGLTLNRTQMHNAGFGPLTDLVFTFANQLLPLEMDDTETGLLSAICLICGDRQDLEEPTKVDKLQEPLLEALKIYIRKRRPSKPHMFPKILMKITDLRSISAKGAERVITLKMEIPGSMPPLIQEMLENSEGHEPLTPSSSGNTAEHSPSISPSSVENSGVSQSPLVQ

Consider `O=C(O)c1ccc(-c2ccc(-c3cc4c(F)ccc(F)c4o3)[nH]2)cc1` [1e], for which, on RARα [1], the “RARα relative EC30” value is 0.80 ± 0.17. The “RARγ relative EC30” value on RARγ [2] is given as 1750 ± 750. For the same compound, the RARα/RARβ ratio on RARα [3] was determined as 0.0038. Further, the RARγ/RARβ ratio on RARγ [4] is recorded as 8.33. Further, the “RARβ relative EC30” value at RARβ [5] was 210 ± 40.
Regarding `Cc1ccc(C)c2sc(-c3ccc(-c4ccc(C(=O)O)cc4)[nH]3)cc12` [1j], on RARα [1], the “RARα relative EC30” value is listed as 1.3 ± 0.6. Moreover, the “RARγ relative EC30” value on RARγ [2] is reported as 840 ± 360. For the same compound, the RARα/RARβ ratio on RARα [3] was 0.010. The RARγ/RARβ ratio on RARγ [4] came out at 6.46. The “RARβ relative EC30” value on RARβ [5] is recorded as 130 ± 60.
In general, EC50 refers to the midpoint of the concentration-response curve. As to `Cc1ccc(C)c2oc(-c3nc(-c4ccc(C(=O)O)cc4C(F)(F)F)no3)cc12` [BHBA-004, 4-(5-(4,7-Dimethylbenzofuran-2-yl)-1,2,4-oxadiazol-3-yl)-3-(trifluoromethyl)benzoic acid], the “RARγ EC50” value on RARγ [6] (setting [9]) was “inactive”. At RARα [7] (setting [9]), the “RARα EC50” value is “inactive”. Moreover, the EC50 at RARβ [8] was found to be 0.01 µM.
Consider `Cc1ccc(C)c2oc(-c3nc(-c4ccc(C(=O)O)cc4)ns3)cc12` [BHBA-038, 4-(5-(4,7-Dimethylbenzofuran-2-yl)-1,2,4-thiadiazol-3-yl)benzoic acid], for which the figures for the EC50 on RARγ [6] (setting [9]), at RARα [7] (setting [9]) and at RARβ [8] were 0.0061 µM, 0.019 µM and 0.0051 µM, respectively. Moreover, the RARγ/RARβ ratio on RARγ [6] worked out at 1.2. For the same compound, the RARα/RARβ ratio at RARα [7] turned out to be 3.7.
For `Cc1cc(-c2noc(-c3cc4c(C)ccc(C)c4o3)n2)ccc1C(=O)O` [BHBA-006, 2-Methyl-4-(5-(4,7-dimethylbenzofuran-2-yl)-1,2,4-oxadiazol-3-yl)benzoic acid] the same measures were 0.025 µM, 0.089 µM, 0.014 µM, 2 and 6.
On to `O=C(O)c1ccc(-c2noc(-c3cc4c(C(F)(F)F)ccc(F)c4o3)n2)c(Cl)c1` [BHBA-020, 3-Chloro-4-(5-(7-fluoro-4-(trifluoromethyl)benzofuran-2-yl)-1,2,4-oxadiazol-3-yl)benzoic acid], for which the results for the EC50 at RARγ [6] (setting [9]), on RARα [7] (setting [9]) and at RARβ [8] were 0.023 µM, 0.06 µM and 0.008 µM, respectively.
Turning to `Cc1cc(-c2nc(-c3cc4c(C)ccc(C)c4o3)no2)ccc1C(=O)O` [BHBA-032, 4-(3-(4,7-Dimethylbenzofuran-2-yl)-1,2,4-oxadiazol-5-yl)-2-methylbenzoic acid], the EC50 at RARγ [6] (setting [9]) was found to be 0.022 µM; on RARα [7] (setting [9]), 0.15 µM; on RARβ [8], 0.0081 µM. Besides, the RARγ/RARβ ratio at RARγ [6] was 2.7. At RARα [7], the RARα/RARβ ratio is on record as 18.5.
As for `O=C(O)c1ccc(-c2noc(-c3cc4c(Cl)ccc(Cl)c4o3)n2)cc1F` [BHBA-014, 2-Fluoro-4-(5-(4,7-dichlorobenzofuran-2-yl)-1,2,4-oxadiazol-3-yl)benzoic acid], the values for the EC50 on RARγ [6] (setting [9]), on RARα [7] (setting [9]) and at RARβ [8] were 0.011 µM, 0.012 µM and 0.002 µM, respectively.
For `Cc1ccc(C)c2oc(-c3nnc(-c4ccc(C(=O)O)cc4Cl)o3)cc12` [BHBA-036, 3-Chloro-4-(5-(4,7-dimethylbenzofuran-2-yl)-1,3,4-oxadiazol-2-yl)benzoic acid], the 50% effective concentration (EC50) on RARγ [6] (setting [9]) was 0.058 µM; on RARα [7] (setting [9]), 0.225 µM; at RARβ [8] it was 0.028 µM. The RARγ/RARβ ratio at RARγ [6] is 2.1. Also, the RARα/RARβ ratio on RARα [7] is listed as 8.
As for `Cc1ccc(C)c2oc(-c3noc(-c4ccc(C(=O)O)cc4Cl)n3)cc12` [BHBA-031, 3-Chloro-4-(3-(4,7-dimethylbenzofuran-2-yl)-1,2,4-oxadiazol-5-yl)benzoic acid], the results for the EC50 at RARγ [6] (setting [9]), on RARα [7] (setting [9]) and on RARβ [8] were 0.042 µM, 0.15 µM and 0.017 µM, respectively. Besides, on RARγ [6], the RARγ/RARβ ratio came out at 2.5. Further, the RARα/RARβ ratio at RARα [7] was 8.8.
As for `Cc1ccc(C)c2oc(-c3nc(-c4ccc(C(=O)O)cc4Cl)ns3)cc12` [BHBA-039, 3-Chloro-4-(5-(4,7-dimethylbenzofuran-2-yl)-1,2,4-thiadiazol-3-yl)benzoic acid], the EC50 on RARγ [6] (setting [9]) is 0.013 µM; at RARα [7] (setting [9]) it was 0.065 µM; at RARβ [8], 0.0036 µM.
With `O=C(O)c1ccc(-c2noc(-c3cc4c(C(F)(F)F)ccc(F)c4o3)n2)cc1` [BHBA-019, 4-(5-(7-Fluoro-4-(trifluoromethyl)benzofuran-2-yl)-1,2,4-oxadiazol-3-yl)benzoic acid], the figures for the EC50 on RARγ [6] (setting [9]), on RARα [7] (setting [9]) and at RARβ [8] were 0.0053 µM, 0.019 µM and 0.0025 µM, respectively. Moreover, at RARγ [6], the RARγ/RARβ ratio amounted to 2. In addition, the RARα/RARβ ratio on RARα [7] is listed as 7.6.
The matching figures for `Cc1ccc(C)c2oc(-c3nsc(-c4ccc(C(=O)O)c(F)c4)n3)cc12` [BHBA-044, 4-(3-(4,7-Dimethylbenzofuran-2-yl)-1,2,4-thiadiazol-5-yl)-2-fluorobenzoic acid]: 0.0034 µM, 0.026 µM, 0.002 µM, 1.7 and 13.
Regarding `Cc1ccc(Cl)c2oc(-c3nc(-c4ccc(C(=O)O)cc4)no3)cc12` [BHBA-015, 4-(5-(7-Chloro-4-methylbenzofuran-2-yl)-1,2,4-oxadiazol-3-yl)benzoic acid], the EC50 at RARγ [6] (setting [9]) was found to be 0.012 µM; on RARα [7] (setting [9]), 0.023 µM; at RARβ [8], 0.0029 µM.
As for `Cc1ccc(C)c2oc(-c3nnc(-c4ccc(C(=O)O)c(F)c4)o3)cc12` [BHBA-037, 4-(5-(4,7-Dimethylbenzofuran-2-yl)-1,3,4-oxadiazol-2-yl)-2-fluorobenzoic acid], the figures for the half-maximal effective concentration (EC50) at RARγ [6] (setting [9]), at RARα [7] (setting [9]) and on RARβ [8] were 0.06 µM, 0.091 µM and 0.045 µM, respectively. In addition, on RARγ [6], the RARγ/RARβ ratio was determined as 1.3. Further, on RARα [7], the RARα/RARβ ratio turned out to be 2.
For the compound `Cc1ccc(C)c2oc(-c3nc(-c4ccc(C(=O)O)c(F)c4)no3)cc12` [BHBA-007, 2-Fluoro-4-(5-(4,7-dimethylbenzofuran-2-yl)-1,2,4-oxadiazol-3-yl)benzoic acid], the figures for the EC50 at RARγ [6] (setting [9]), at RARα [7] (setting [9]) and at RARβ [8] were 0.0084 µM, 0.016 µM and 0.0022 µM, respectively.
Take `Cc1cc(-c2noc(-c3cc4c(Cl)ccc(Cl)c4o3)n2)ccc1C(=O)O` [BHBA-013, 2-Methyl-4-(5-(4,7-dichlorobenzofuran-2-yl)-1,2,4-oxadiazol-3-yl)benzoic acid]: the EC50 on RARγ [6] (setting [9]) stood at 0.11 µM; at RARα [7] (setting [9]) it was 0.14 µM; on RARβ [8], 0.016 µM.
As to `O=C(O)c1ccc(-c2noc(-c3cc4c(Cl)ccc(Cl)c4o3)n2)c(Cl)c1` [BHBA-012, 3-Chloro-4-(5-(4,7-dichlorobenzofuran-2-yl)-1,2,4-oxadiazol-3-yl)benzoic acid], the EC50 on RARγ [6] (setting [9]) is 0.017 µM; on RARα [7] (setting [9]) it was 0.067 µM; on RARβ [8], 0.017 µM. The RARγ/RARβ ratio on RARγ [6] came to 1. Also, at RARα [7], the RARα/RARβ ratio is 4.
As for `Cc1c(Cl)cc(C)c2oc(-c3nc(-c4ccc(C(=O)O)cc4)no3)cc12` [BHBA-045, 4-(5-(5-Chloro-4,7-dimethylbenzofuran-2-yl)-1,2,4-oxadiazol-3-yl)benzoic acid], the results for the EC50 on RARγ [6] (setting [9]), on RARα [7] (setting [9]) and at RARβ [8] were 0.04 µM, 0.091 µM and 0.004 µM, respectively.
On to `Cc1ccc(Cl)c2cc(-c3nc(-c4ccc(C(=O)O)cc4)no3)oc12` [BHBA-016, 4-(5-(4-Chloro-7-methylbenzofuran-2-yl)-1,2,4-oxadiazol-3-yl)benzoic acid], for which the EC50 turned out to be 0.006 µM at RARγ [6] (setting [9]), 0.018 µM on RARα [7] (setting [9]) and 0.0027 µM at RARβ [8]. The RARγ/RARβ ratio at RARγ [6] is given as 2. At RARα [7], the RARα/RARβ ratio is 7.
In the case of `O=C(O)c1ccc(-c2noc(-c3cc4c(Cl)ccc(Cl)c4o3)n2)cc1` [BHBA-011, 4-(5-(4,7-Dichlorobenzofuran-2-yl)-1,2,4-oxadiazol-3-yl)benzoic acid], the results for the EC50 on RARγ [6] (setting [9]), at RARα [7] (setting [9]) and at RARβ [8] were 0.014 µM, 0.026 µM and 0.0043 µM, respectively.

The values above are taken from patent US10752616B2, “Bicycloheteroaryl-heteroaryl-benzoic acid compounds as retinoic acid receptor beta (RARβ) agonists” (King's College London, priority 2014, dated 2020).
